Source: US12384797B2, “Thioeno[3,2-b] pyridin-7-amine compounds for treating familial dysautonomia” (PTC THERAPEUTICS, INC., priority 2019, dated 2025)

Tested on: Elongator complex protein 1 (ELP1, also referred to as IKBKAP)
Assay: IKBKAP-HTRF assay (IKBKAP protein in lysates of FD patient-derived fibroblasts)
Assay type: cell-based, human
Details: 48 hours incubation, 7-point concentration curve
Method: The assay is used for the quantitative determination of Elongator complex protein 1 (ELP1, also referred to as IKBKAP) concentration in cell lysates using the HTRF® (Homogeneous Time-Resolved Fluorescence) technology. IKBKAP is detected in a sandwich HTRF assay by use of an anti-IKAP antibody labeled with a donor and an anti-IKAP antibody labeled with an acceptor.
Cells were thawed and incubated in DMEM-10% FBS for 72 hours. Cells were trypsinized, counted, and re-suspended to a concentration of 50,000 cells/mL in DMEM-10% FBS. A 199 μL aliquot of the cell suspensions were plated at 10,000 cells per well in a 96 well microtiter plate and incubated for 3 to 5 hours. […] Test compounds were serially diluted 3.16-fold in 100% DMSO to generate a 7-point concentration curve. A 1 μL aliquot of 200× compound solution was transferred to cell-containing wells, and cells were incubated for 48 hours in a cell culture incubator (37° C., 5% CO2, 100% relative humidity). Triplicate samples were set up for each compound concentration. After 48 hours, the supernatant was removed from the cells and 50 μL of the 1×LB4 lysis buffer, containing protease inhibitors, was added to the cells and incubated with shaking at room temperature for 1 hour. A 36 μL aliquot of this lysate was subsequently transferred to the 384-well plate containing 4 μL of the antibody solution (1:50 dilution of anti IKAP d2 and anti-IKAP K(9+8) in detection buffer). The 384-well plate was then centrifuged for 1 minute to bring the solutions to the bottom of the plate and incubated overnight at 4° C. Fluorescence for each well of the plate at 665 nm and 620 nm was measured was on the EnVision plate reader (Perkin Elmer). The ΔF for each sample is calculated by:
[formula] wherein Signal is the normalized fluorescence for each sample well and Blank is the average normalized average fluorescence for the Blank control wells.
The maximum fold increase (MFI) in IKBKAP protein abundance for compounds of Formula (I) or a form thereof relative to the vehicle control are provided in Table 1. MFI was calculated by dividing the ΔF value for each sample well by the sample ΔF for the vehicle control wells.
The EC2x for IKBKAP protein expression obtained from the 7-point concentration curve generated for each test compound according to the protocol in Biological Example 1 are also provided in Table 1. The term “EC2x for IKBKAP protein expression” is defined as the concentration of test compound that is effective in producing two times the amount of IKBKAP protein in a FD patient cell compared to the amount produced from the DMSO vehicle control.

`N[C@@H](CF)Cc1sc2c(NCc3cccs3)cc(Cl)nc2c1Br` [Compound 76, 2-[(2R)-2-amino-3-fluoropropyl]-3-bromo-5-chloro-N-[(thiophen-2-yl)methyl]thieno[3,2-b]pyridin-7-amine] was tested, and the “EC2x for IKBKAP protein expression (concentration producing two times the amount of IKBKAP protein vs DMSO vehicle control)” value was “***** (≤0.005 μM is indicated by five stars (*****))” and the “MFI (maximum fold increase in IKBKAP protein abundance relative to the vehicle control)” value was “***** (>4.9 is indicated by five stars (*****))”.

For `Cc1c(C[C@@H](N)CCF)sc2c(NCc3ccco3)cc(Cl)nc12` [Compound 95, 2-[(2S)-2-amino-4-fluorobutyl]-5-chloro-N-[(furan-2-yl)methyl]-3-methylthieno[3,2-b]pyridin-7-amine], the “EC2x for IKBKAP protein expression (concentration producing two times the amount of IKBKAP protein vs DMSO vehicle control)” value was “***** (≤0.005 μM is indicated by five stars (*****))” and the “MFI (maximum fold increase in IKBKAP protein abundance relative to the vehicle control)” value was “***** (>4.9 is indicated by five stars (*****))”.

With `C[C@H](N)Cc1cc2nc(Cl)cc(NCc3ccco3)c2s1` [Compound 16, 2-[(2S)-2-aminopropyl]-5-chloro-N-[(furan-2-yl)methyl]thieno[3,2-b]pyridin-7-amine] the “EC2x for IKBKAP protein expression (concentration producing two times the amount of IKBKAP protein vs DMSO vehicle control)” value was “***** (≤0.005 μM is indicated by five stars (*****))” and the “MFI (maximum fold increase in IKBKAP protein abundance relative to the vehicle control)” value was “**** (between >3.9 and ≤4.9 is indicated by four stars (****))”.

For `Cc1c(CCN)sc2c(NCc3ccco3)cc(Cl)nc12` [Compound 152, 2-(2-aminoethyl)-5-chloro-N-[(furan-2-yl)methyl]-3-methylthieno[3,2-b]pyridin-7-amine], the “EC2x for IKBKAP protein expression (concentration producing two times the amount of IKBKAP protein vs DMSO vehicle control)” value was “*** (between >0.02 μM and ≤0.5 μM is indicated by three stars (***))” and the “MFI (maximum fold increase in IKBKAP protein abundance relative to the vehicle control)” value was “** (between >1.9 and ≤2.9 is indicated by two stars (**))”.

With `N[C@@H](CF)Cc1sc2c(NCc3nccs3)cc(Cl)nc2c1C1CC1` [Compound 87, 2-[(2R)-2-amino-3-fluoropropyl]-5-chloro-3-cyclopropyl-N-[(1,3-thiazol-2-yl)methyl]thieno[3,2-b]pyridin-7-amine] the “EC2x for IKBKAP protein expression (concentration producing two times the amount of IKBKAP protein vs DMSO vehicle control)” value was “*** (between >0.02 μM and ≤0.5 μM is indicated by three stars (***))” and the “MFI (maximum fold increase in IKBKAP protein abundance relative to the vehicle control)” value was “*** (between >2.9 and ≤3.9 is indicated by three stars (***))”.

With `N[C@@H](CCF)Cc1sc2c(NCc3cccs3)cc(Cl)nc2c1Br` [Compound 74, 2-[(2S)-2-amino-4-fluorobutyl]-3-bromo-5-chloro-N-[(thiophen-2-yl)methyl]thieno[3,2-b]pyridin-7-amine] the “EC2x for IKBKAP protein expression (concentration producing two times the amount of IKBKAP protein vs DMSO vehicle control)” value was “***** (≤0.005 μM is indicated by five stars (*****))” and the “MFI (maximum fold increase in IKBKAP protein abundance relative to the vehicle control)” value was “***** (>4.9 is indicated by five stars (*****))”.

In the case of `N[C@@H](CCF)Cc1sc2c(NCc3nccs3)cc(Cl)nc2c1Br` [Compound 88, 2-[(2S)-2-amino-4-fluorobutyl]-3-bromo-5-chloro-N-[(1,3-thiazol-2-yl)methyl]thieno[3,2-b]pyridin-7-amine], the “EC2x for IKBKAP protein expression (concentration producing two times the amount of IKBKAP protein vs DMSO vehicle control)” value is reported as “***** (≤0.005 μM is indicated by five stars (*****))” and the “MFI (maximum fold increase in IKBKAP protein abundance relative to the vehicle control)” value is reported as “***** (>4.9 is indicated by five stars (*****))”.

In the case of `N#Cc1cc(NCc2ccco2)c2scc(C#N)c2n1` [Compound 15, 7-{[(furan-2-yl)methyl]amino}thieno[3,2-b]pyridine-3,5-dicarbonitrile], the “EC2x for IKBKAP protein expression (concentration producing two times the amount of IKBKAP protein vs DMSO vehicle control)” value is reported as “* (An EC2x>1 μM is indicated by one star (*))” and the “MFI (maximum fold increase in IKBKAP protein abundance relative to the vehicle control)” value is reported as “* (An MFI≤1.9 is indicated by one star (*))”.

In the case of `CN[C@H](c1sc2c(NCc3ccco3)cc(Cl)nc2c1C)C(C)C` [Compound 32, 5-chloro-N-[(furan-2-yl)methyl]-3-methyl-2-[(1S)-2-methyl-1-(methylamino)propyl]thieno[3,2-b]pyridin-7-amine], the “EC2x for IKBKAP protein expression (concentration producing two times the amount of IKBKAP protein vs DMSO vehicle control)” value is reported as “* (An EC2x>1 μM is indicated by one star (*))” and the “MFI (maximum fold increase in IKBKAP protein abundance relative to the vehicle control)” value is reported as “* (An MFI≤1.9 is indicated by one star (*))”.

For `N[C@@H](CO)Cc1sc2c(NCc3ccco3)cc(Cl)nc2c1Br` [Compound 41, (2R)-2-amino-3-(3-bromo-5-chloro-7-{[(furan-2-yl)methyl]amino}thieno[3,2-b]pyridin-2-yl)propan-1-ol], the “EC2x for IKBKAP protein expression (concentration producing two times the amount of IKBKAP protein vs DMSO vehicle control)” value was “***** (≤0.005 μM is indicated by five stars (*****))” and the “MFI (maximum fold increase in IKBKAP protein abundance relative to the vehicle control)” value was “***** (>4.9 is indicated by five stars (*****))”.

`Cc1c(C(C)CN)sc2c(NCc3ccco3)cc(Cl)nc12` (centres unmarked) [Compound 148, 2-(1-aminopropan-2-yl)-5-chloro-N-[(furan-2-yl)methyl]-3-methylthieno[3,2-b]pyridin-7-amine] was tested, and the “EC2x for IKBKAP protein expression (concentration producing two times the amount of IKBKAP protein vs DMSO vehicle control)” value was “***** (≤0.005 μM is indicated by five stars (*****))” and the “MFI (maximum fold increase in IKBKAP protein abundance relative to the vehicle control)” value was “**** (between >3.9 and ≤4.9 is indicated by four stars (****))”.

For `C[C@H](N)Cc1sc2c(NCc3ccco3)cc(C#N)nc2c1C#N` [Compound 50, 2-[(2S)-2-aminopropyl]-7-{[(furan-2-yl)methyl]amino}thieno[3,2-b]pyridine-3,5-dicarbonitrile], the “EC2x for IKBKAP protein expression (concentration producing two times the amount of IKBKAP protein vs DMSO vehicle control)” value was “**** (between >0.005 μM and ≤0.02 μM is indicated by four stars (****))” and the “MFI (maximum fold increase in IKBKAP protein abundance relative to the vehicle control)” value was “**** (between >3.9 and ≤4.9 is indicated by four stars (****))”.

For `COC[C@H](N)Cc1sc2c(NCc3ccco3)cc(Cl)nc2c1Br` [Compound 44, 2-[(2R)-2-amino-3-methoxypropyl]-3-bromo-5-chloro-N-[(furan-2-yl)methyl]thieno[3,2-b]pyridin-7-amine], the “EC2x for IKBKAP protein expression (concentration producing two times the amount of IKBKAP protein vs DMSO vehicle control)” value was “***** (≤0.005 μM is indicated by five stars (*****))” and the “MFI (maximum fold increase in IKBKAP protein abundance relative to the vehicle control)” value was “***** (>4.9 is indicated by five stars (*****))”.

`N[C@@H](CCF)Cc1sc2c(NCc3nccs3)cc(Cl)nc2c1Cl` [Compound 47, 2-[(2S)-2-amino-4-fluorobutyl]-3,5-dichloro-N-[(1,3-thiazol-2-yl)methyl]thieno[3,2-b]pyridin-7-amine] was tested, and the “EC2x for IKBKAP protein expression (concentration producing two times the amount of IKBKAP protein vs DMSO vehicle control)” value was “***** (≤0.005 μM is indicated by five stars (*****))” and the “MFI (maximum fold increase in IKBKAP protein abundance relative to the vehicle control)” value was “***** (>4.9 is indicated by five stars (*****))”.

In the case of `C[C@H](N)Cc1sc2c(NCc3cccs3)cc(C#N)nc2c1C#N` [Compound 102, 2-[(2S)-2-aminopropyl]-7-{[(thiophen-2-yl)methyl]amino}thieno[3,2-b]pyridine-3,5-dicarbonitrile], the “EC2x for IKBKAP protein expression (concentration producing two times the amount of IKBKAP protein vs DMSO vehicle control)” value is reported as “***** (≤0.005 μM is indicated by five stars (*****))” and the “MFI (maximum fold increase in IKBKAP protein abundance relative to the vehicle control)” value is reported as “***** (>4.9 is indicated by five stars (*****))”.

For `Cc1c(C[C@H](C)N)sc2c(NCc3ccncc3F)cc(Cl)nc12` [Compound 35, 2-[(2S)-2-aminopropyl]-5-chloro-N-[(3-fluoropyridin-4-yl)methyl]-3-methylthieno[3,2-b]pyridin-7-amine], the “EC2x for IKBKAP protein expression (concentration producing two times the amount of IKBKAP protein vs DMSO vehicle control)” value was “***** (≤0.005 μM is indicated by five stars (*****))” and the “MFI (maximum fold increase in IKBKAP protein abundance relative to the vehicle control)” value was “***** (>4.9 is indicated by five stars (*****))”.

`Cc1c(C[C@H](C)N)sc2c(NCc3ccco3)cc(Cl)nc12` [Compound 18, 2-[(2S)-2-aminopropyl]-5-chloro-N-[(furan-2-yl)methyl]-3-methylthieno[3,2-b]pyridin-7-amine] was tested, and the “EC2x for IKBKAP protein expression (concentration producing two times the amount of IKBKAP protein vs DMSO vehicle control)” value was “***** (≤0.005 μM is indicated by five stars (*****))” and the “MFI (maximum fold increase in IKBKAP protein abundance relative to the vehicle control)” value was “***** (>4.9 is indicated by five stars (*****))”.

For `Clc1cc(NCc2nccs2)c2scc(Cl)c2n1` [Compound 8, 3,5-dichloro-N-[(1,3-thiazol-2-yl)methyl]thieno[3,2-b]pyridin-7-amine], the “EC2x for IKBKAP protein expression (concentration producing two times the amount of IKBKAP protein vs DMSO vehicle control)” value was “*** (between >0.02 μM and ≤0.5 μM is indicated by three stars (***))” and the “MFI (maximum fold increase in IKBKAP protein abundance relative to the vehicle control)” value was “***** (>4.9 is indicated by five stars (*****))”.

In the case of `Cc1c(C[C@@H](N)C(=O)O)sc2c(NCc3ccco3)cc(Cl)nc12` [Compound 115, 3-(5-chloro-7-{[(furan-2-yl)methyl]amino}-3-methylthieno[3,2-b]pyridin-2-yl)-D-alanine], the “EC2x for IKBKAP protein expression (concentration producing two times the amount of IKBKAP protein vs DMSO vehicle control)” value is reported as “***** (≤0.005 μM is indicated by five stars (*****))” and the “MFI (maximum fold increase in IKBKAP protein abundance relative to the vehicle control)” value is reported as “***** (>4.9 is indicated by five stars (*****))”.
